Here are results for two compounds from PMC4069099, “Pharmacological Validation of an Inward-Rectifier Potassium (Kir) Channel as an Insecticide Target in the Yellow Fever Mosquito Aedes aegypti” (PLoS ONE, 2014).

Where only a bound is given, the exact number is not on record here.

Format in all cases: cell-based
Test [1] concerns the target T1, AeKir1 (Aedes aegypti, UniProt L0EQS9).
T1 sequence (L0EQS9 1-486): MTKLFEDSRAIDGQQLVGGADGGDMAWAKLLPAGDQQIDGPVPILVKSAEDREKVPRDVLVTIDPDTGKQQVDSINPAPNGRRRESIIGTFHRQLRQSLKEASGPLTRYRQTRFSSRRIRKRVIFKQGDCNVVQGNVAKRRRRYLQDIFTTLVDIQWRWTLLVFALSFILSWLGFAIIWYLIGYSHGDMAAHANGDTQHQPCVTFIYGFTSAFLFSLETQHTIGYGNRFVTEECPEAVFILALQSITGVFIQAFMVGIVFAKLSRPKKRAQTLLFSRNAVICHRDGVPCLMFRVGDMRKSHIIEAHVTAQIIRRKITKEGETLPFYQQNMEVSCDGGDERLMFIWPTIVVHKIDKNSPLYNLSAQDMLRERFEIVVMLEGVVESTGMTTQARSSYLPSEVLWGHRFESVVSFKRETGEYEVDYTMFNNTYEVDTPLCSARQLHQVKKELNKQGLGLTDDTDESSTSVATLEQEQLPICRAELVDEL
The test is described as follows: Tl+-flux assay in T-REx-HEK293 cells expressing AeKir1; also two-electrode voltage clamp in Xenopus oocytes ([…], […] block). A general note: Two-electrode voltage clamp holds a large cell at a set potential and records current.

Test [2] has as its target T1, AeKir1. The test is described as follows: two-electrode voltage clamp in Xenopus oocytes, inhibition of inward current at […].
A further test addresses T2, AeKir2B (Aedes aegypti, UniProt L0EQ40).
T2 sequence (L0EQ40 1-489): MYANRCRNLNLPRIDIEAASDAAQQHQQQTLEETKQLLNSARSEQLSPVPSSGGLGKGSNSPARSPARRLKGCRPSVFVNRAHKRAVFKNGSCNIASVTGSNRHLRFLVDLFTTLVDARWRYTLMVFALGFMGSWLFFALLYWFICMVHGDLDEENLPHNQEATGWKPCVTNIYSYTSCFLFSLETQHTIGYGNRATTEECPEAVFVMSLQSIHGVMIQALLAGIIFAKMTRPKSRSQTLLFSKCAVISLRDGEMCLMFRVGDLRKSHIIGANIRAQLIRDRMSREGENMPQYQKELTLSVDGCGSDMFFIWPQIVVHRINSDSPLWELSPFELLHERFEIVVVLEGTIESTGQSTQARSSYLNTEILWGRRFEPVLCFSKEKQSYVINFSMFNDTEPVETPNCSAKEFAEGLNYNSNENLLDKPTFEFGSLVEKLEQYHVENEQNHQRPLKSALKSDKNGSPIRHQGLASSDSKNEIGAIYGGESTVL
The test is described as follows: two-electrode voltage clamp in Xenopus oocytes, activation of inward current at […].

For orientation: IC50 means the point on the concentration scale where inhibition reaches its midpoint. Higher therefore signals a need for much substance. As for `O=[N+]([O-])c1ccc(CN2CCOCCOCCN(Cc3ccc([N+](=O)[O-])cc3)CCOCC2)cc1` [VU590], on AeKir1 [1], it took 5.6 µM to reach half-maximal inhibition (IC50). Consider `Cc1ccc(OCC(O)Cn2c(=N)n(Cc3ccccc3)c3ccccc32)cc1` (stereo not drawn) [VU573], for which the “% inhibition at 50 μM” value at AeKir1 [2] is ~ 50. Further, the “% activation at 50 μM” value on AeKir2B is reported as more than 50 % activation at 50 µM.
